Experimental data as given in patent publication US20220273683A1, “BORON-CONTAINING SMALL MOLECULES” (Bill & Melinda Gates Foundation, priority 2016, published 2022).
Converted amounts (≈) assume the structure as drawn.

Columns and labels:
Assay type in all cases: cell-based
[1] = test system: Wolbachia pipientis in C6/36 cell line; test: Anti-Wolbachia high-content assay; conditions: C6/36 (wAlbB) cells, 7 days at 26° C., 50% reduction of Wolbachia
Source text: C6/36 cells (ECACC #89051705, derived from Aedes albopictus larvae) were infected with Wolbachia pipientis derived from the supernatant of cultured A. albopictus Aa23 cells to create a stably Wolbachia-infected cell line C6/36 (wAlbB). This cell line was subpassaged 6-8 days prior to plating out at a density of 2000 viable cells per well in a 384-well CellCarrier plate suspended in Liebovitz media supplemented with 20% fetal bovine serum, 2% tryptose phosphate broth and 1% non-essential amino acids. Compounds were dissolved and diluted in DMSO, and compound solution was added to each well to provide a final DMSO concentration <1% and a total volume of 100 μL per well. Following 7 days of sterile incubation at 26° C., staining media containing SYTO 11 DNA dye was added to each well. After 15 minutes, all media was removed from each well and fresh media (no stain) was added. Imaging of each well was accomplished using a Perkin Elmer Operetta high-content imaging system. Five fields per well were imaged using a confocal 60× objective with the Fluorescein filter (excitation filter: 460-490 nm; emission filter: 500-550 nm). Images were analyzed using the Perkin Elmer Harmony software to score each intact cell on the basis of texture complexity of the cytoplasm. Full details can be found in: […]. Biomol. Screening, 2015, 20, […]. Compound sample wells were analyzed and normalized (along with the positive controls) against the vehicle (untreated) control to give a percentage reduction of Wolbachia-infected cells. Using the cell number analysis, compounds with a host cell number amounting to less than 50% of the vehicle control were classified as toxic and retested at a reduced compound concentration. Dose-response curves were generated with percentage reduction of Wolbachia-infected cells versus compound concentration, using 5-10 compound serial dilutions. Data were analyzed and compound EC50 is determined using a 4 parameter logistic nonlinear regression model.

[2] = test system: Streptococcus pneumoniae (ATCC 49619); test: Antibacterial MIC assay (microbroth dilution, CLSI); conditions: 35° C., 16-20 hours; for MIC Streptococcus pneumoniae (ATCC 49619): 3% lysed horse blood
Method in brief: (§1)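 Microbroth dilution per CLSI M07-A10/M100-S25 in cation-adjusted Mueller-Hinton broth, with 3% lysed horse blood added for S. pneumoniae. Inoculum from a 0.5 McFarland direct colony suspension, diluted to 5×10^5 CFU/mL in the well. Compounds were 2-fold serially diluted; MIC read against a growth control.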

[3] = test system: Staphylococcus aureus, MRSA (ATCC 33591); test: as above; conditions: 35° C., 16-20 hours
Method in brief: as §1

Structure (SMILES) | EC50 [1] [nM] | MIC Streptococcus pneumoniae (ATCC 49619) [2] | MIC Staphylococcus aureus, MRSA (ATCC 33591) [3] | MIC ([2]; Streptococcus pneumoniae, ATCC49619, 3% lysed horse blood) [µg/mL] | MIC ([3]; Staphylococcus aureus) [µg/mL]
C[C@@H]1CC[C@@]23CCC(=O)[C@H]2[C@]1(C)[C@H](OC(=O)COc1ccc2c(c1F)B(O)OC2)C[C@@]1(C)CCC(=O)O[C@H]1[C@@H]3C [Compound 1, (4aR,6R,7R,7aR,10aS,11R,11aS,14R)-4a,7,11,14-tetramethyl-2,8-dioxododecahydro-2H-7,10a-propanocyclopenta[6,7]cycloocta[1,2-b]pyran-6-yl2-((7-fluoro-1-hydroxy-1,3-dihydrobenzo[c][1,2]oxaborol-6-yl)oxy)acetate] | > 1000 | C (4-32 is C) | B (0.5-2 is B) |  | 
C[C@@H]1CC[C@@]23CCC(=O)[C@H]2[C@]1(C)[C@H](OC(=O)COc1ccc2c(c1F)B(O)OC2)C[C@@](C)(CCC(N)=O)[C@@H](O)[C@@H]3C [Compound 2, (3aR,4R,5R,7R,8S,9R,9aS,12R)-7-(3-amino-3-oxopropyl)-8-hydroxy-4,7,9,12-tetramethyl-3-oxodecahydro-4,9a-propanocyclopenta[8]annulen-5-yl2-((7-fluoro-1-hydroxy-1,3-dihydrobenzo[c][1,2]oxaborol-6-yl)oxy)acetate] | > 1000 | C (4-32 is C) | C (4-32 is C) |  | 
CNC(=O)CC[C@]1(C)C[C@@H](OC(=O)COc2ccc3c(c2F)B(O)OC3)[C@]2(C)[C@H](C)CC[C@]3(CCC(=O)[C@H]32)[C@@H](C)[C@@H]1O [Compound 3, (3aR,4R,5R,7R,8S,9R,9aS,12R)-8-hydroxy-4,7,9,12-tetramethyl-7-(3-(methylamino)-3-oxopropyl)-3-oxodecahydro-4,9a-propanocyclopenta[8]annulen-5-yl2-((7-fluoro-1-hydroxy-1,3-dihydrobenzo[c][1,2]oxaborol-6-yl)oxy)acetate] | > 1000 | B (0.5-2 is B) | B (0.5-2 is B) |  | 
C[C@@H]1CC[C@@]23CCC(=O)[C@H]2[C@]1(C)[C@H](OC(=O)COc1ccc2c(c1F)B(O)OC2)C[C@@](C)(CCN1CCOCC1)[C@@H](O)[C@@H]3C [Compound 41, (3aR,4R,5R,7R,8S,9R,9aS,12R)-8-hydroxy-4,7,9,12-tetramethyl-7-(2-morpholinoethyl)-3-oxodecahydro-4,9a-propanocyclopenta[8]annulen-5-yl 2-((7-fluoro-1-hydroxy-1,3-dihydrobenzo[c][1,2]oxaborol-6-yl)oxy)acetate] |  |  |  | 4 to 32 (≈ 6.5 to 52 µM) | 4 to 32 (≈ 6.5 to 52 µM)
CCN(CC)CC[C@]1(C)C[C@@H](OC(=O)COc2ccc3c(c2F)B(O)OC3)[C@]2(C)[C@H](C)CC[C@]3(CCC(=O)[C@H]32)[C@@H](C)[C@@H]1O [Compound 42, (3aR,4R,5R,7R,8S,9R,9aS,12R)-7-(2-(diethylamino)ethyl)-8-hydroxy-4,7,9,12-tetramethyl-3-oxodecahydro-4,9a-propanocyclopenta[8]annulen-5-yl2-((7-fluoro-1-hydroxy-1,3-dihydrobenzo[c][1,2]oxaborol-6-yl)oxy)acetate] |  | D (≥64 is D) | C (4-32 is C) |  | 
C[C@@H]1CC[C@@]23CCC(=O)[C@H]2[C@]1(C)[C@H](OC(=O)COc1ccc2c(c1F)B(O)OC2)C[C@@](C)(C=NO)[C@@H](O)[C@@H]3C [Compound 43, (3aR,4R,5R,7S,8S,9R,9aS,12R)-8-hydroxy-7-((hydroxyimino)methyl)-4,7,9,12-tetramethyl-3-oxodecahydro-4,9a-propanocyclopenta[8]annulen-5-yl2-((7-fluoro-1-hydroxy-1,3-dihydrobenzo[c][1,2]oxaborol-6-yl)oxy)acetate] |  | C (4-32 is C) | A (MIC of ≤0.25 is A) |  | 
CON=C[C@]1(C)C[C@@H](OC(=O)COc2ccc3c(c2F)B(O)OC3)[C@]2(C)[C@H](C)CC[C@]3(CCC(=O)[C@H]32)[C@@H](C)[C@@H]1O [Compound 44, (3aR,4R,5R,7S,8S,9R,9aS,12R)-8-hydroxy-7-((methoxyimino)methyl)-4,7,9,12-tetramethyl-3-oxodecahydro-4,9a-propanocyclopenta[8]annulen-5-yl2-((7-fluoro-1-hydroxy-1,3-dihydrobenzo[c][1,2]oxaborol-6-yl)oxy)acetate] |  | C (4-32 is C) | A (MIC of ≤0.25 is A) |  | 

The next lines start with the values.

EC50 [1] [nM] | MIC Streptococcus pneumoniae (ATCC 49619) [2] | MIC Staphylococcus aureus, MRSA (ATCC 33591) [3] | MIC ([2]; Streptococcus pneumoniae, ATCC49619, 3% lysed horse blood) [µg/mL] | MIC ([3]; Staphylococcus aureus) [µg/mL] | Structure (SMILES)
 | C (4-32 is C) | B (0.5-2 is B) |  |  | CONC[C@]1(C)C[C@@H](OC(=O)COc2ccc3c(c2F)B(O)OC3)[C@]2(C)[C@H](C)CC[C@]3(CCC(=O)[C@H]32)[C@@H](C)[C@@H]1O [Compound 45, (3aR,4R,5R,7S,8S,9R,9aS,12R)-8-hydroxy-7-((methoxyamino)methyl)-4,7,9,12-tetramethyl-3-oxodecahydro-4,9a-propanocyclopenta[8]annulen-5-yl2-((7-fluoro-1-hydroxy-1,3-dihydrobenzo[c][1,2]oxaborol-6-yl)oxy)acetate]
 | C (4-32 is C) | B (0.5-2 is B) |  |  | CC(C)ON=C[C@]1(C)C[C@@H](OC(=O)COc2ccc3c(c2F)B(O)OC3)[C@]2(C)[C@H](C)CC[C@]3(CCC(=O)[C@H]32)[C@@H](C)[C@@H]1O [Compound 46, (3aR,4R,5R,7S,8S,9R,9aS,12R)-8-hydroxy-7-((isopropoxyimino)methyl)-4,7,9,12-tetramethyl-3-oxodecahydro-4,9a-propanocyclopenta[8]annulen-5-yl2-((7-fluoro-1-hydroxy-1,3-dihydrobenzo[c][1,2]oxaborol-6-yl)oxy)acetate]
 | C (4-32 is C) | B (0.5-2 is B) |  |  | C[C@@H]1CC[C@@]23CCC(=O)[C@H]2[C@]1(C)[C@H](OC(=O)COc1ccc2c(c1F)B(O)OC2)C[C@@](C)(CN)[C@@H](O)[C@@H]3C [Compound 47, (3aR,4R,5R,7S,8S,9R,9aS,12R)-7-(aminomethyl)-8-hydroxy-4,7,9,12-tetramethyl-3-oxodecahydro-4,9a-propanocyclopenta[8]annulen-5-yl2-((7-fluoro-1-hydroxy-1,3-dihydrobenzo[c][1,2]oxaborol-6-yl)oxy)acetate]
 | C (4-32 is C) | B (0.5-2 is B) |  |  | CC(=O)NC[C@]1(C)C[C@@H](OC(=O)COc2ccc3c(c2F)B(O)OC3)[C@]2(C)[C@H](C)CC[C@]3(CCC(=O)[C@H]32)[C@@H](C)[C@@H]1O [Compound 48, (3aR,4R,5R,7S,8S,9R,9aS,12R)-7-(acetamidomethyl)-8-hydroxy-4,7,9,12-tetramethyl-3-oxodecahydro-4,9a-propanocyclopenta[8]annulen-5-yl2-((7-fluoro-1-hydroxy-1,3-dihydrobenzo[c][1,2]oxaborol-6-yl)oxy)acetate]
 | C (4-32 is C) | C (4-32 is C) |  |  | C[C@@H]1CC[C@@]23CCC(=O)[C@H]2[C@]1(C)[C@H](OC(=O)COc1ccc2c(c1F)B(O)OC2)C[C@@](C)(CN)[C@@H](OS(C)(=O)=O)[C@@H]3C [Compound 50, (3aR,4R,5R,7S,8S,9R,9aS,12R)-7-(aminomethyl)-4,7,9,12-tetramethyl-8-((methylsulfonyl)oxy)-3-oxodecahydro-4,9a-propanocyclopenta[8]annulen-5-yl2-((7-fluoro-1-hydroxy-1,3-dihydrobenzo[c][1,2]oxaborol-6-yl)oxy)acetate]
 | B (0.5-2 is B) | B (0.5-2 is B) |  |  | Cc1nnc(/C=C/[C@]2(C)C[C@@H](OC(=O)COc3ccc4c(c3F)B(O)OC4)[C@]3(C)[C@H](C)CC[C@]4(CCC(=O)[C@H]43)[C@@H](C)[C@@H]2O)o1 [Compound 51, (3aR,4R,5R,7S,8S,9R,9aS,12R)-8-hydroxy-4,7,9,12-tetramethyl-7-((E)-2-(5-methyl-1,3,4-oxadiazol-2-yl)vinyl)-3-oxodecahydro-4,9a-propanocyclopenta[8]annulen-5-yl2-((7-fluoro-1-hydroxy-1,3-dihydrobenzo[c][1,2]oxaborol-6-yl)oxy)acetate]
 | A (MIC of ≤0.25 is A) | A (MIC of ≤0.25 is A) |  |  | Cc1noc(/C=C/[C@]2(C)C[C@@H](OC(=O)COc3ccc4c(c3F)B(O)OC4)[C@]3(C)[C@H](C)CC[C@]4(CCC(=O)[C@H]43)[C@@H](C)[C@@H]2O)n1 [Compound 52, (3aR,4R,5R,7S,8S,9R,9aS,12R)-8-hydroxy-4,7,9,12-tetramethyl-7-((E)-2-(3-methyl-1,2,4-oxadiazol-5-yl)vinyl)-3-oxodecahydro-4,9a-propanocyclopenta[8]annulen-5-yl2-((7-fluoro-1-hydroxy-1,3-dihydrobenzo[c][1,2]oxaborol-6-yl)oxy)acetate]
